Test system: Mitochondria-located protein genes
Experiment: DNA chip mRNA expression in yeast, mitochondria-located protein genes (Table 2)
Format: cell-based, Saccharomyces cerevisiae S288C
Settings: cells incubated two hours with the chemical substance
Procedure: Yeast (Saccharomyces cerevisiae S288C (α SUC2mal mel gap2 CUP1)) were incubated at 25° C. on YPD medium (yeast extract 1%, polypepton 2%, glucose 2%). One of toxic chemical substances was added to the cells at logarithmic growth phase, and the cells were further incubated for two hours. Cells were cultured without any chemical substance in the same condition, and were used as control. Concentrations of the chemical substances were defined to inhibit the growth of the yeast but not lead to death.
After completion of the incubation, the culture was centrifuged to collect the cells. To the cells, sodium acetate buffer (50 mM sodium acetate, 10 mM EDTA, 1% SDS) was added, and the mixture was shaken at 65° C. for five minutes, followed by returning to room temperature, and obtaining the supernatant, of which the procedures were repeated two times. To the supernatant, ½ amount of a solution of phenol/chloroform was added, and the mixture was centrifuged to give a supernatant, which was added with an equal amount of chloroform, and the mixture was centrifuged to give a supernatant. To the supernatant, an equal amount of isopropanol containing 0.3 M sodium acetate was added, and the mixture was allowed to stand at room temperature for 30 minutes, after which the mixture was centrifuged to give a sediment of the whole RNAs. Seventy % ethanol was added to the sediment, and the mixture was again centrifuged to give a sediment, which was then dried and dissolved in water. mRNA was isolated from the whole RNAs as followings. In view of the fact that a poly A chain is attached to the 3′ terminus of mRNA, a polynucleotide having a poly T structure which was immobilized on the surface of latex beads was used to trap the mRNA, and then the mRNA was washed and eluted with spine column (Oligotex-dT30<Super>mRNA Purification Kit, Takara). Reverse transcription of the mRNA was conducted with a reverse transcriptase (Super Script II Reverse Transcriptase; catalogue No. 18064-014, GibcoBRL) using fluorescence-labeled nucleotides to give cDNAs that were introduced with Cy3-dUTP or Cy5-dUTP during the reverse transcription.
The labeled cDNAs were dissolved in TE buffer (10mM Tris-HCl/1 mM EDTA, pH8.0), and the solution was dropped on the DNA chip containing the whole genes of yeast (DNA Chip Research Inc. Japan) so that the cDNAs were hybridized on the DNA chip at 65° C. for over 12 hours. The fluoresces intensity of the DNA chip was read with a scanner, and the ratio relative to the fluorescence intensity resulting from the absence of chemical substance was estimated as the following, which is shown in Tables 1 to 9: […]

In the case of `CCCCCCCCCCCCc1ccc(S(=O)(=O)[O-])cc1.[Na+]` [(17), sodium dodecylbenzosulfonate], the “The level of expressed mRNA in the presence of chemical substance/The level of expressed mRNA in the absence of chemical substance” value (yeast gene YJR121W) is reported as 1.1, the “The level of expressed mRNA in the presence of chemical substance/The level of expressed mRNA in the absence of chemical substance” value (yeast gene YKL003C) is reported as 1.0 and the “The level of expressed mRNA in the presence of chemical substance/The level of expressed mRNA in the absence of chemical substance” value (yeast gene YKL016C) is reported as 1.0. For the same compound, the “The level of expressed mRNA in the presence of chemical substance/The level of expressed mRNA in the absence of chemical substance” value (yeast gene YKL141W) was 0.9, the “The level of expressed mRNA in the presence of chemical substance/The level of expressed mRNA in the absence of chemical substance” value (yeast gene YKL142W) was 2.4 and the “The level of expressed mRNA in the presence of chemical substance/The level of expressed mRNA in the absence of chemical substance” value (yeast gene YKL148C) was 0.8. For the same compound, the “The level of expressed mRNA in the presence of chemical substance/The level of expressed mRNA in the absence of chemical substance” value (yeast gene YKL170W) was 1.1, the “The level of expressed mRNA in the presence of chemical substance/The level of expressed mRNA in the absence of chemical substance” value (yeast gene YKL194C) was 1.1 and the “The level of expressed mRNA in the presence of chemical substance/The level of expressed mRNA in the absence of chemical substance” value (yeast gene YKR066C) was 0.9. For the same compound, the “The level of expressed mRNA in the presence of chemical substance/The level of expressed mRNA in the absence of chemical substance” value (yeast gene YLL041C) was 1.1, the “The level of expressed mRNA in the presence of chemical substance/The level of expressed mRNA in the absence of chemical substance” value (yeast gene YLR038C) was 1.2 and the “The level of expressed mRNA in the presence of chemical substance/The level of expressed mRNA in the absence of chemical substance” value (yeast gene YLR259C) was 0.8. The “The level of expressed mRNA in the presence of chemical substance/The level of expressed mRNA in the absence of chemical substance” value (yeast gene YLR295C) was 0.9, the “The level of expressed mRNA in the presence of chemical substance/The level of expressed mRNA in the absence of chemical substance” value (yeast gene YLR304C) was 0.5 and the “The level of expressed mRNA in the presence of chemical substance/The level of expressed mRNA in the absence of chemical substance” value (yeast gene YLR348C) was 1.1. The “The level of expressed mRNA in the presence of chemical substance/The level of expressed mRNA in the absence of chemical substance” value (yeast gene YLR395C) was 1.2, the “The level of expressed mRNA in the presence of chemical substance/The level of expressed mRNA in the absence of chemical substance” value (yeast gene YML054C) was 1.1 and the “The level of expressed mRNA in the presence of chemical substance/The level of expressed mRNA in the absence of chemical substance” value (yeast gene YML120C) was 1.0. For the same compound, the “The level of expressed mRNA in the presence of chemical substance/The level of expressed mRNA in the absence of chemical substance” value (yeast gene YML129C) was 1.3, the “The level of expressed mRNA in the presence of chemical substance/The level of expressed mRNA in the absence of chemical substance” value (yeast gene YMR023C) was 1.1 and the “The level of expressed mRNA in the presence of chemical substance/The level of expressed mRNA in the absence of chemical substance” value (yeast gene YMR035W) was 2.2. For the same compound, the “The level of expressed mRNA in the presence of chemical substance/The level of expressed mRNA in the absence of chemical substance” value (yeast gene YMR083W) was 0.9, the “The level of expressed mRNA in the presence of chemical substance/The level of expressed mRNA in the absence of chemical substance” value (yeast gene YMR089C) was 0.9 and the “The level of expressed mRNA in the presence of chemical substance/The level of expressed mRNA in the absence of chemical substance” value (yeast gene YMR152W) was 1.5. The “The level of expressed mRNA in the presence of chemical substance/The level of expressed mRNA in the absence of chemical substance” value (yeast gene YMR203W) was 0.8, the “The level of expressed mRNA in the presence of chemical substance/The level of expressed mRNA in the absence of chemical substance” value (yeast gene YMR267W) was 0.9 and the “The level of expressed mRNA in the presence of chemical substance/The level of expressed mRNA in the absence of chemical substance” value (yeast gene YNL055C) was 1.2. The “The level of expressed mRNA in the presence of chemical substance/The level of expressed mRNA in the absence of chemical substance” value (yeast gene YNL071W) was 1.0, the “The level of expressed mRNA in the presence of chemical substance/The level of expressed mRNA in the absence of chemical substance” value (yeast gene YNL073W) was 0.8 and the “The level of expressed mRNA in the presence of chemical substance/The level of expressed mRNA in the absence of chemical substance” value (yeast gene YNL104C) was 0.9. For the same compound, the “The level of expressed mRNA in the presence of chemical substance/The level of expressed mRNA in the absence of chemical substance” value (yeast gene YNL256W) was 0.6, the “The level of expressed mRNA in the presence of chemical substance/The level of expressed mRNA in the absence of chemical substance” value (yeast gene YOL096C) was 1.2 and the “The level of expressed mRNA in the presence of chemical substance/The level of expressed mRNA in the absence of chemical substance” value (yeast gene YOR020C) was 1.4. The “The level of expressed mRNA in the presence of chemical substance/The level of expressed mRNA in the absence of chemical substance” value (yeast gene YOR037W) was 1.2, the “The level of expressed mRNA in the presence of chemical substance/The level of expressed mRNA in the absence of chemical substance” value (yeast gene YOR100C) was 0.9 and the “The level of expressed mRNA in the presence of chemical substance/The level of expressed mRNA in the absence of chemical substance” value (yeast gene YOR130C) was 1.5. The “The level of expressed mRNA in the presence of chemical substance/The level of expressed mRNA in the absence of chemical substance” value (yeast gene YOR142W) was 0.9, the “The level of expressed mRNA in the presence of chemical substance/The level of expressed mRNA in the absence of chemical substance” value (yeast gene YOR150W) was 0.9 and the “The level of expressed mRNA in the presence of chemical substance/The level of expressed mRNA in the absence of chemical substance” value (yeast gene YOR176W) was 1.2. The “The level of expressed mRNA in the presence of chemical substance/The level of expressed mRNA in the absence of chemical substance” value (yeast gene YOR187W) was 0.8, the “The level of expressed mRNA in the presence of chemical substance/The level of expressed mRNA in the absence of chemical substance” value (yeast gene YOR316C) was 0.8 and the “The level of expressed mRNA in the presence of chemical substance/The level of expressed mRNA in the absence of chemical substance” value (yeast gene YPL040C) was 0.8. The “The level of expressed mRNA in the presence of chemical substance/The level of expressed mRNA in the absence of chemical substance” value (yeast gene YPL134C) was 1.3, the “The level of expressed mRNA in the presence of chemical substance/The level of expressed mRNA in the absence of chemical substance” value (yeast gene YPL135W) was 1.5 and the “The level of expressed mRNA in the presence of chemical substance/The level of expressed mRNA in the absence of chemical substance” value (yeast gene YPL215W) was 1.0. For the same compound, the “The level of expressed mRNA in the presence of chemical substance/The level of expressed mRNA in the absence of chemical substance” value (yeast gene YPL262W) was 1.1, the “The level of expressed mRNA in the presence of chemical substance/The level of expressed mRNA in the absence of chemical substance” value (yeast gene YPR024W) was 1.1 and the “The level of expressed mRNA in the presence of chemical substance/The level of expressed mRNA in the absence of chemical substance” value (yeast gene YPR037C) was 1.2. The “The level of expressed mRNA in the presence of chemical substance/The level of expressed mRNA in the absence of chemical substance” value (yeast gene YPR047W) was 1.0 and the “The level of expressed mRNA in the presence of chemical substance/The level of expressed mRNA in the absence of chemical substance” value (yeast gene YPR134W) was 1.0.

— patent US8192962B2, “Processes for detecting toxic substances” (Daikin Industries, Ltd., priority 2001, dated 2012)
